Assay results from ChEMBL document CHEMBL1151036, “Synthesis and HIV-1 inhibition of novel benzimidazole derivatives” (Bioorg Med Chem Lett, 1995).
pEC50: −log10 of the molar value.

System: C8166
Assay: Inhibitory activity against HIV-111B in C8166 cells
Assay type: functional, cell-based
Conditions: Homo sapiens
In the case of `CCCOn1c(CC)nc2ccc(Cl)cc21`, the pEC50 was 6.22.
`CCCOn1c(CC)nc2c(C)cccc21` showed a pEC50 of 5.22.
`CCCOn1c(CC)nc2ccc(OC)cc21` showed a pEC50 of 5.49.
`CCCn1c(SC)nc2c(CBr)cccc21` gave a pEC50 of 5.10.
In the case of `CC(C)=CCN1Cc2cc(Cl)cc3[nH]c(=S)n(c23)C[C@@H]1C`, the pEC50 was 8.70.
For `CCCOn1c(CC)nc2ccc(C)cc21`, the pEC50 was 5.80.
With `CCCn1c(SC)nc2c(C)cccc21` the pEC50 was 5.40.
With `CCCOn1c(CC)nc2ccccc21` the pEC50 was 5.70.

System: C8166
Assay: Compound was tested for toxicity against HIV-111B in C8166 cells
Assay type: functional
Conditions: Homo sapiens, read-out: TC50 (the source's name)
`CCCOn1c(CC)nc2ccc(Cl)cc21` gave a CC50 of 40 µM.
`CCCOn1c(CC)nc2c(C)cccc21` gave a CC50 of 1000 µM.
In the case of `CCCOn1c(CC)nc2ccc(OC)cc21`, the CC50 was 100 µM.
For `CCCn1c(SC)nc2c(CBr)cccc21`, the CC50 was 80 µM.
`CC(C)=CCN1Cc2cc(Cl)cc3[nH]c(=S)n(c23)C[C@@H]1C` showed a CC50 of 62 µM.
For `CCCn1c(SC)nc2c(C)cccc21`, the CC50 was 100 µM.
With `CCCOn1c(CC)nc2ccccc21` the CC50 was 100 µM.
`Cc1cn([C@H]2C[C@H](N=[N+]=[N-])[C@@H](CO)O2)c(=O)[nH]c1=O` [ZIDOVUDINE] gave a CC50 of over 1000 µM.

System: C8166
Assay: Compound was tested for toxicity against HIV-111B in C8166 cells; value ranges from 20-30 uM
Assay type: functional
Conditions: Homo sapiens, read-out: TC50 (the source's name)
Compound `CCCOn1c(CC)nc2ccc(C)cc21` has a CC50 of 20 µM.

Biological target: Human immunodeficiency virus type 1 reverse transcriptase (Human immunodeficiency virus 1) (UniProt Q72547)
Assay: Concentration required for inhibition of HIV-1 reverse transcriptase (RT)
Conditions: not given
Compound `CCCOn1c(CC)nc2ccc(Cl)cc21` has a Concentration of 10 µM.
Compound `CCCOn1c(CC)nc2c(C)cccc21` has a Concentration of 100 µM.
With `CC(C)=CCN1Cc2cc(Cl)cc3[nH]c(=S)n(c23)C[C@@H]1C` the Concentration was 0.16 µM.

Biological target: Human immunodeficiency virus type 1 reverse transcriptase (Human immunodeficiency virus 1) (UniProt Q72547)
Assay: Compound was tested for % inhibition of HIV-1 reverse transcriptase (RT)
Conditions: concentration not given here
In the case of `CCCOn1c(CC)nc2ccc(Cl)cc21`, the inhibition was 50%.
In the case of `CCCOn1c(CC)nc2c(C)cccc21`, the inhibition was 66%.
Compound `CC(C)=CCN1Cc2cc(Cl)cc3[nH]c(=S)n(c23)C[C@@H]1C` has an inhibition of 50%.

System: not listed separately
Assay: Selectivity ratio of TC50 to that of EC50; value ranges from 12.5-19
Assay type: functional
Conditions: not given
`CCCOn1c(CC)nc2ccc(C)cc21` gave a Ratio of 12.5.

System: not listed separately
Assay: Selectivity ratio of TC50 to that of EC50; value ranges from 33-50
Assay type: functional
Conditions: not given
For `CCCOn1c(CC)nc2ccccc21`, the Ratio was 33.

System: not listed separately
Assay: Selectivity ratio of TC50 to that of EC50
Assay type: functional
Conditions: not given
Work on `CCCOn1c(CC)nc2ccc(Cl)cc21` yielded a Ratio of 67.
Compound `CCCOn1c(CC)nc2c(C)cccc21` has a Ratio of 167.
With `CCCOn1c(CC)nc2ccc(OC)cc21` the Ratio was 31.
Work on `CCCn1c(SC)nc2c(CBr)cccc21` yielded a Ratio of 10.
Work on `CC(C)=CCN1Cc2cc(Cl)cc3[nH]c(=S)n(c23)C[C@@H]1C` yielded a Ratio of 31000.
Compound `CCCn1c(SC)nc2c(C)cccc21` has a Ratio of 25.
